Measurements taken from patent US10012655B2, “Method for quantitating total HMGB1 protein in biological samples” (INSTITUT PASTEUR, priority 2008, dated 2018).

Legend:
iDCs [1] = assay: aNK-induced apoptosis of iDCs at NK:DC ratio 5:1 (7-AAD assay); format: cell-based, human
Protocol: (a) CD56^+ NK cells were purified from the blood of healthy donors. NK cells were maintained in culture with suboptimal concentrations of interleukin-2 (IL-2) (100 ng/ml) (rNK cells) or activated (aNK cells) by the addition PHA (10 μg/ml) and IL-2 (10 μg/ml) to cultures. […] Data represent the mean±sd of three independent experiments. […] In some cases, iDCs were cocultured with aNK cells at the NK:DC ratio of 5:1. […] Cell death was then quantified with the 7-AAD assay. […] (g) iDCs were cultured for 24 h either alone or with aNK cells (NK:DC ratio of 5:1), in the absence or presence of blocking anti-DR4 antibodies (250 ng/ml). The viability status of DCs was determined by flow cytometry with the 7-AAD assay. […]
FIGS. 11(a)-(b). […] Cell death was then quantified with the 7-AAD assay. […]
rNK or aNK were cocultured during 24 h with iDCs or mDCs at a ratio of 1:5 (2×105 NK+10×105 DC/1 ml), unless otherwise indicated. DC survival was determined with the 7-AAD assay, as described previously55. […]
Immature DCs (iDCs) were prepared from sorted monocytes from healthy donors, cultured for 6 days in the presence of IL-4 and GM-CSF. […] The influence of NK-DC interaction on DC's maturation and apoptosis was analyzed using multiparametric flow cytometry, combining 7-AAD staining with membrane and intracellular staining with mAbs specific for HLA-DR, DC-SIGN, CD83, CD86, DR4, mTRAIL, etc.

iDCs [2] = assay: aNK-dependent maturation of iDCs in 24 h aNK-iDC coculture (CD86/HLA-DR flow cytometry); format: cell-based, human; conditions: uninfected iDCs, inhibitor 10 μg/ml added at initiation
Protocol: FIG. 3 (a)-(e). aNK-dependent maturation of HIV-1-infected iDCs is mediated by HMGB1 and involves RAGE. (a) Left panel: iDCs were cultured for 24 h either alone or with aNK cells, in the presence of blocking anti-HMGB1 antibodies (10 μg/ml) or glycyrrhizin (10 μg/ml). The maturation status of DCs was determined by flow cytometry with CD86 and HLA-DR—specific antibodies. Right panel: same experiment, but performed with HIV-1 infected iDCs. Data represent mean±sd of at least three independent experiments, and statistical comparisons were made with the non parametric Mann-Whitney test. * p<0.05. (b) iDC (10^6 cells/ml) were cultured for 48 h with increasing concentrations (1-10 μg/ml) of rh-HMGB1. Cells were then stained with anti-CD86, -HLA-DR, -CD80, -CD83, DC-LAMP and -CD40 antibodies and analyzed by flow cytometry. (c) Influence of rh-HMGB1 on cytokine and chemokine production (determined by MAP) by DCs. iDCs (10^6 cells/ml) were incubated for 48 h in medium or in presence of rh-HMGB1 (1 or 10 μg/ml). As a positive control, iDCs were stimulated with LPS (DC0). […] (e) iDC, DC0, uninfected or HIV-1-infected iDC cocultured for 24 h with aNK cells, were incubated with rh-HMGB1 (1 μg/ml) and subsequently stained with anti-RAGE antibodies and analyzed by flow cytometry. […]

R5-HIV-1Ba-L = assay: HIV-1 replication in infected iDCs, p24 ELISA in culture supernatant; format: cell-based; conditions: inhibitor 10 μg/ml, 3 days
Protocol: FIGS. 6 (a), (b) and (c). Exogenous rh-HMGB1 triggers HIV-1 and HIV-2 replication in iDC. (a) HIV-1-infected iDC were cultured alone or in the presence of aNK cells for 3 days. Rh-HMGB1 (1 μg/ml) was added in some cultures. HIV replication was measured by p24 quantification in culture supernatant (b) HIV1-infected iDC were cultured alone or in the presence of aNK cells for 3 days. Blocking anti-HMGB1 antibodies (10 μg/ml) or glycyrrhizin (10 μg/ml) were added at culture initiation. HIV replication was measured by p24 quantification in culture supernatant. The mean±sd of three independent experiments is shown. Statistical comparisons were made with the non parametric Mann-Whitney test. * p<0.05; (c) HIV-2-infected iDC were cultured alone or in the presence of aNK cells for 3 days. Rh-HMGB1 (1 μg/ml) was added in some cultures. HIV replication was measured by p24 quantification in culture supernatant.
Virus stock preparation was prepared by amplification of R5-HIV-1Ba-L on MDM from healthy donors. Viral stock was then clarified by centrifugation prior to determination of HIV1 p24 concentration. iDCs were plated in 96-well culture plates at 200,000 cells/well and incubated for 3 hours at 37° C. in a 5% CO2 atmosphere with R5-HIV-1BAL at various concentrations (0.001 to 10 ng p24/ml). Cells were harvested, washed four times with media containing 10% FCS and, when indicated, rNK or aNK cells were added at a NK:DC ratio of 1:5, unless otherwise indicated. NK-DC cocultures lasted 24 h before analysis of the maturation stage of DCs and/or quantification of viral production. In some experiments (FIG. 6), HIV-1 infected iDCs were incubated alone or with aNK cells for 3 days, in the presence of rh-HMGB1 (1 μg/ml) (R&DSystems), and in some cultures in the presence of rabbit antiHMGB1 Abs (10 μg/ml) (Abcam, Cambridge, UK) or Glycyrrhizin (10 μg/ml).
The concentration of HIV-1 in the supernatant of infected cell cultures was determined by measuring the amount of p24 protein by ELISA (Ingen, Belgium). DNA from cells was extracted using the GIAamp DNA Blood Mini Kit (Qiagen, Basel, Switzerland) and quantified HIV-1 proviral load by RT-PCR as described previously54. The frequency of HIV-1-infected cells was determined by flow cytometry to detect intracellular p24 molecule. Cells were surface stained with antibodies specific for CD40 (BD Biosciences, San Jose, Calif.) to target DC and intracellular stained with p24-specific antibodies (Coulter). Stained cells were fixed in 1% PFA, immediately acquired on a FACScalibur (Becton Dickinson) and analyzed with FlowJo software. In some experiments infected DCs were imaged, after immunofluorescence, by laser scanning confocal microscopy.

HIV-infected DCs = assay: TRAIL-induced apoptosis of iDCs and HIV-infected DCs (7-AAD assay); format: cell-based, human; conditions: 24 h with 1-1000 ng/ml rhs-TRAIL
Protocol: FIGS. 10(a)-(d). R5-HIV-infected DCs are resistant to killing by aNK cells, although TRAIL secretion persists in the presence of HIV-1 (a) iDCs were either infected with R5-HIV-1BaL (1 ng/ml of p24) for 24 h or uninfected, and after several washes, they were incubated with aNK cells at the ratios of 1:5 and 5:1. iDCs viability was assayed with the 7-AAD test by flow cytometry. Living cells are 7-AAA^−, apoptotic cells 7-AAD^+, and apoptotic debris are 7-AAD^−FSC^low. Dot plots represent one of at least three independent experiments. […] DCs were uninfected (iDCs), infected with R5-HIV-1 at 1 ng/ml of p24 (HIV-DCs) or stimulated with LPS for 48 h. Cells were then stained with CD86 and HLA-DR. Data represent one of at least three independent experiments. (c) TRAIL secretion is not affected by HIV infection of iDCs. 24 h cell-free culture supernatants of iDCs, HIV-infected DCs (10^6/ml), aNK cells-iDCs cocultures (ratio 5:1) and aNK cells-HIV-infected DCs cocultures (ratio 5:1) were tested for soluble TRAIL (sTRAIL) content by ELISA. Data represent the mean±sd of three independent experiments. […] Cell death was then quantified with the 7-AAD assay. The mean±sd of three independent experiments was presented.

Q: For `C/C=C/[C@H]1O[C@@](O)([C@@H](C)[C@H](O)[C@H](C)[C@H]2OC(=O)/C(OC)=C/C(C)=C/[C@@H](C)[C@@H](O)[C@@H](CC)[C@@H](O)[C@H](C)C/C(C)=C/C=C/[C@@H]2OC)C[C@@H](O[C@H]2C[C@@H](O)[C@H](OC(N)=O)[C@@H](C)O2)[C@@H]1C` [Concanamycin A], which “NK-dependent iDCs apoptosis” value (iDCs [1]; uninfected iDCs, aNK cells, NK:DC ratio 5:1, 24 h) is on record?
A: no effect

Q: For `CC1(C)[C@@H](O[C@H]2O[C@H](C(=O)O)[C@@H](O)[C@H](O)[C@H]2O[C@@H]2O[C@H](C(=O)O)[C@@H](O)[C@H](O)[C@H]2O)CC[C@]2(C)[C@H]3C(=O)C=C4[C@@H]5C[C@@](C)(C(=O)O)CC[C@]5(C)CC[C@@]4(C)[C@]3(C)CC[C@@H]12` [glycyrrhizin, reference compound], which “proportions of mature DCs (CD86bright HLA-DRbright)” value (iDCs [2]) is on record?
A: reduced the proportions of mature DCs (identified as CD86brightHLA-DRbright) to the baseline level observed without aNK cells

Q: What about the “HIV-1 production (p24 in supernatant)” value (R5-HIV-1Ba-L; infected DC cocultured with aNK cells) of the same molecule?
A: abrogated HIV-1 production

Q: What about the “HIV-1 production (p24 in supernatant)” value (R5-HIV-1Ba-L; infected DC cultured alone) of the same molecule?
A: abrogated HIV-1 production

Q: And the “resistance of HIV-1-infected iDCs to aNK-induced apoptosis (inhibition assays)” value (iDCs [1]; HIV-1-infected iDCs, NK:DC ratio 5:1, AZT added at infection, inhibitors at coculture initiation)?
A: found dependent on HMGB1

B1: rhs-TRAIL: recombinant human soluble TRAIL (protein, UniProt P50591 39-281, looked up)
extracellular domain: TNELKQMQDKYSKSGIACFLKEDDSYWDPNDEESMNSPCWQVKWQLRQLVRKMILRTSEETISTVQEKQQNISPLVRERGPQRVAAHITGTRGRSNTLSSPNSKNEKALGRKINSWESSRSGHSFLSNLHLRNGELVIHEKGFYYIYSQTYFRFQEEIKENTKNDKQMVQYIYKYTSYPDPILLMKSARNSCWSKDAEYGLYSIYQGGIFELKENDRIFVSVTNEHLIDMDHEASFFGAFLVG
modifications: extracellular domain
Q: How did the “cell death of HIV-1-infected DCs” value (HIV-infected DCs) turn out when B1 was run?
A: still susceptible to TRAIL-induced apoptosis
